Source: patent US5041542A, “Substituted pyrimido[5,4-d]pyrimidine nucleosides” (Nucleic Acid Research Institute, priority 1988, dated 1991)
In brackets after ≈: the same amount, converted by molar mass. Like-named read-outs stand apart in the source and are kept apart here.

Columns and labels:
[1] = test system: vaccinia virus (Elstree strain); assay type: cell-based; settings: HeLa cells; VR >1.0 marked, 0.5 to 0.9 moderate, <0.5 weak or no activity
[2] = test system: LoVo/L cells; test: In vitro cytotoxicity, LoVo/L; assay type: cell-based; settings: Homo sapiens, 120 h, 5 days, 37° C., MTT, read-out: Antitumor (ID50) LoVo/L
Protocol: (§1) ^b (ID50) inhibitory dose is the μM concentration of the
(§2) In vitro cytotoxicity analysis was performed by using the following cell lines: L1210 (a murine leukemia), WI-L2 (a human B-lymphoblast), and LoVo/L (a human colon carcinoma). Cells were grown in RPMI 1640 medium supplemented with 10% fetal bovine serum, 20 mM HEPES, pH 7.4, and 2 mM glutamine. The cytotoxicity determinations were carried out in 96-well microtiter dishes containing a starting number of 5-10×10^3 cells per well and 0.1-100 μM concentrations of the compounds in triplicate wells. L1210 and WI-L2 were incubated with the compounds at 37° C. for 3 days, while Lovo/L was incubated for 5 days. After this time period, 25 μL of 4 mg/mL 3-(4,5-dimethylthiazol-2-yl)-2,5-diphenyltetrazolium bromide was added to each well and incubation was continued for 2 to 5 h. The formazan product was dissolved in isopropanol containing 0.04M HCl and the absorbance was determined with a microtiter plate reader. The absorbance was proportional to the number of cells.

[3] = delivered at 0.01 ml/g mouse weight
[4] = test system: L1210; test: In vivo antitumor activity against L1210 in BDF1 mice
Protocol: Compounds 8, 11, 14 and 17 were comparatively evaluated in vivo for efficacy against L1210 in BDF1 mice.
Mice were inoculated i.p. with 1×10^6 L1210 cells 24 hr before qd, day 1, i.p. drug delivery. Drugs were solubilized in water and delivered at the rate of 0.01 ml/g mouse weight. Then control mice/drug were injected i.p. with equivalent volumes of a 0.9% solution of NaCl, the means and standard deviations reflecting the postinoculation life spans of these mice ranged from 6.30±0.48 to 6.60±0.97 days.

[5] = test system: WI-L2 cells deficient in adenosine kinase; test: Cytotoxicity to WI-L2 cells deficient in adenosine kinase activity; assay type: cell-based, human; settings: 100 μM
Protocol: (§3) Compounds of the invention were also tested for certain biochemical properties. Compounds of the invention were studied for their effect on de novo purine biosynthesis by observing inhibition of incorporation of [^14 C]formate into the acid-soluble fraction of WI-L2 cells (see Table 3). […] However, 8 and 14 (100 μM) were not cytotoxic to WI-L2 cells deficient in adenosine kinase activity.
(§4) A normal lymphoblast phenotype B cell line, WI-L2 was used. The enzyme-deficient cell lines used in vitro are: HPRT-, a hypoxanthine-guanine phosphorbosyl transferase (EC 2.4.2.8)deficient line and AK-, an adenosine kinase (EC 2.7.1.20)deficient line. Cells were cultured in RPMI 1640 medium containing 5% dialyzed fetal bovine serum, 20 mM Na HEPES, pH 7.5 and 2 mM glutamine and maintained in log phase growth between 0.5 and 12×10^5 cells/mL. The mutant cell lines were periodically reselected by treatment with 6-thioguanine (HPRT-) or tubercidin (AK-).

[6] = test system: WI-L2 cells; test: In vitro cytotoxicity, WI-L2; assay type: cell-based; settings: Homo sapiens, WIL2, 72 h; 3 days, 37° C., MTT; read-out: Antitumor (ID50) WI-L2
Protocol: as §1, §2

[7] = test system: de novo purine biosynthesis in WI-L2 cells; test: Inhibition of de novo purine biosynthesis ([14C]formate incorporation); assay type: cell-based, human; settings: for minimal effective concentration: active at concentrations as low as, read-out: lowest active concentration, de novo purine biosynthesis; for activity at 0.25 µM / activity at 2.5 µM: pre-incubation 8 h; for inhibitory activity on de novo purine biosynthesis (ranking): WI-L2 cells
Protocol: as §3, §4
. Inhibition of de novo purine biosynthesis: WI-L2 or adenosine kinase-deficient cells were preincubated at 37° C. with drug for various time periods prior to labeling with [^14 C]formate. Enzyme Assays: Adenosine kinase inhibition studies were accomplished by the filter binding assay method. Inhibition studies were done at 37° C. with an assay mixture containing 4 mM ATP, 1.5 mM MgCl2, 5 or 10 μM [8-^14 C] adenosine (50 mCi/mmol) and 100 mM Tris-maleate, pH 5.5. To prevent the enzymatic breakdown of adenosine, erythro-9-(2-hydroxy-3-nonyl)adenine (EHNA) was added to the cell-free WI-L2 lysate to give 5 μM final assay concentration. The assay was started by the addition of protein. The amount of enzyme, time of assay and sampling volume were adjusted to give acceptable conversion of [8-^14 C] adenosine to [8-^14 C]AMP. Each DE-81 filter was spotted with a constant sampling volume and immersed in H 2 O (4 L) to terminate the reaction. Filters were washed three times with H2 O (4 L) and once with EtOH (100 mL). Dry filters were placed in scintillation vials and radioactivity was counted with 10 mL toluene-based scintillation cocktail.
De novo purine biosynthesis was measured by the incorporation of ^14 C-formate into cellular purine nucleotides or excreted purines after pre-incubation with compound.

[8] = test system: L1210 cells; test: In vitro cytotoxicity, L1210; assay type: cell-based, murine; settings: Mus musculus, L1210, 72 h; 3 days, 37° C., MTT; read-out: Antitumor (ID50) L1210
Protocol: as §1, §2

[9] = test system: parainfluenza 3 (C243 strain); test: In vitro antiviral activity, parainfluenza 3 (virus rating); assay type: cell-based; settings: Vero cells; VR >1.0 marked, 0.5 to 0.9 moderate, <0.5 weak or no activity
[10] = in vitro; assay type: biochemical; settings: adenosine deaminase, pH 7.5
Protocol: (§5) Samples were analyzed directly on reverse-phase HPLC. Enzymatic conversions were distinguished from hydrolysis by treating a parallel sample with EHNA to inhibit the deaminase activity.

[11] = test system: adenosine deaminase; test: in vitro; assay type: biochemical; settings: compared with ARPP
Protocol: as §5

[12] = Lethal toxicity in treated mice
[13] = physchem; settings: water
[14] = test system: pyrimidine (CTP + UTP) and purine (ATP + GTP) nucleoside triphosphates; test: 14C-bicarbonate incorporation into acid soluble pyrimidine and purine nucleoside triphosphates; assay type: cell-based
Source text: Comparative effect of compounds on ^14 C-bicarbonate
incorporation into acid soluble pyrimidine (PyrTP,
CTP + UTP) and purine (PurTP, ATP + GTP) nucleoside

[15] = test system: herpes simplex virus type 2 (MS strain); test: In vitro antiviral activity, herpes simplex virus type 2 (virus rating); assay type: cell-based; settings: Vero cells; VR >1.0 marked, 0.5 to 0.9 moderate, <0.5 weak or no activity
[16] = Homo sapiens, WIL2, cell, read-out: de novo purine biosynthesis, % of control, cell, 0.25 μM
[17] = Homo sapiens, WIL2, cell, read-out: de novo purine biosynthesis, % of control, cell, 2.5 μM
[18] = Homo sapiens, WIL2, media (excreted purines), read-out: de novo purine biosynthesis, % of control, media, 0.25 μM
[19] = Homo sapiens, WIL2, media (excreted purines), read-out: de novo purine biosynthesis, % of control, media, 2.5 μM

SMILES | Antiviral (VR) VV [1] | IC50 [2] | Maximum watersoluble dosage [3] | cytotoxicity to adenosine kinase-deficient WI-L2 cells [5] | IC50 [6] | effect on de novo purine biosynthesis [7] | minimal effective concentration ([7]; Homo sapiens, WIL2) | activity at 0.25 µM [7, 16] | activity at 2.5 µM [7, 17] | activity at 0.25 µM [7, 18] | activity at 2.5 µM [7, 19] | inhibitory activity on de novo purine biosynthesis (ranking) [7] | IC50 [8] | Antiviral (VR) PI3 [9] | substrate activity for adenosine deaminase [11] | lethal toxicity at maximum soluble dosage ([12]; i.p.) | solubility [13] | Antiviral (VR) HSV2 [15] | also measured
COc1ncnc2c(N[C@@H]3O[C@H](CO)[C@@H](O)[C@H]3O)ncnc12 [Compound 14, 4-Methoxy-8-(β-D-ribofuranosylamino)pyrimido[5,4-d]pyrimidine] | 1.0 VR | 0.28 µM | 173 mg/kg/inj. | not cytotoxic | 0.06 µM | inhibit an early step in de novo purine biosynthesis | 0.25 µM | 41.9% | 2.7% | 63% | 41.8% | greatest inhibitory activity | 0.04 µM | 0.7 VR | less active as a substrate for adenosine deaminase | lethally toxic at that level for all treated mice | 17.3 mg/mL (≈ 55.9 mM) | 0.2 VR | T/C, 62 mg/kg ([4]; 62 mg/kg, qd day 1): 182; Postinoculation Lifespan (% T/C), 62 mg/kg/inj. ([4]; 62 mg/kg/inj. i.p., qd, day 1): 182 % T/C; activity at 25 µM ([7]; Homo sapiens, WIL2, cell, 25 μM, pre-incubation 4 h, read-out: de novo purine biosynthesis, % of control, cell, 25 μM): 4.3%; metabolised at 18 h, 1000 µM ([10]; 18 h, same conditions as for ARPP, read-out: deaminated by adenosine deaminase in 18 h): < 10%; maximum non-lethal concentration ([12]; i.p., qd day 1): 6.2 mg/mL; death of treated mice at 10.4 mg/mL ([12]; made up at 10.4 mg/mL): 1/6; CAA (carbamyl aspartate), 5.0 μM ([14]; 5.0 μM): 1322 cpm/10^6 cells; PurTP, 5.0 μM ([14]; 5.0 μM, zero = undetectable): 0 cpm/10^6 cells; PyrTP, 5.0 μM ([14]; 5.0 μM, zero = undetectable): 0 cpm/10^6 cells; activity at 5 µM ([14]; 5.0 μM, zero = undetectable, read-out: PurTP, % control, 5.0 μM): 0%; activity at 5 µM ([14]; 5.0 μM, zero = undetectable, read-out: PydTP, % control, 5.0 μM): 0%
Nc1ncnc2c(N[C@@H]3O[C@H](CO)[C@@H](O)[C@H]3O)ncnc12 [Compound 8, 4-Amino-8-(β-D-ribofuranosylamino)pyrimido[5,4-d]pyrimidine, reference compound] | 1.3 VR | 7 µM | 173 mg/kg/inj. | not cytotoxic | 0.2 µM | inhibit an early step in de novo purine biosynthesis | 0.25 µM | 79.5% | 29.9% | 71.9% | 54.6% | greatest inhibitory activity | 0.8 µM | 0.7 VR | preferential disappearance of the β-anomer | Neither drug was lethally toxic at its maximum soluble dosage | 17.3 mg/mL (≈ 58.8 mM) | 0.8 VR | Postinoculation Lifespan (% T/C), 173 mg/kg/inj. ([4]; 173 mg/kg/inj. i.p., qd, day 1): 162 % T/C; T/C ([4]; qd, day 1, at maximum soluble dosage): 162; metabolised at 5 min, 1000 µM ([10]; 5 min, β-anomer, read-out: conversion of β-anomer by adenosine deaminase in 5 min): 60%; CAA (carbamyl aspartate), 1.5 μM ([14]; 1.5 μM): 1608 cpm/10^6 cells; PurTP, 1.5 μM ([14]; 1.5 μM, zero = undetectable): 0 cpm/10^6 cells; PyrTP, 1.5 μM ([14]; 1.5 μM, zero = undetectable): 0 cpm/10^6 cells; activity at 1.5 µM ([14]; 1.5 μM, zero = undetectable, read-out: PurTP, % control, 1.5 μM): 0%; activity at 1.5 µM ([14]; read-out: PydTP, % control, 1.5 μM): 0%
